We go through two compounds from US12246040B2, “Human homogeneous amniotic fluid stem cell lines and uses thereof” (priority 2018, dated 2025).

Holding throughout (format): cell-based
For assay [1], the system named is homogeneous human amniotic fluid clonal stem cells. Briefly: In vitro chondrocyte differentiation with pharmacological agent screening. The conditions noted are these: 21 days; results not shown.
The test system is the same in assay [2]. Nature of the assay: In vitro neural differentiation with pharmacological agent screening. The note with it: neural induction 21 days; results not shown.
The test system is the same in assay [3]. Nature of the assay: In vitro osteocyte differentiation with pharmacological agent screening. The conditions noted are these: results not shown.

Structures are written as SMILES.

Consider `O=S(=O)([O-])[O-].[Mg+2]` [MgSO4], for which, in assay [1], the “effect on chondrogenic differentiation” value was “minimal or no effect”. For the same compound, the “effect on neural / neurological development” value in assay [2] is “minimal or no effect”. Besides, the “effect on bone development / osteogenic differentiation” value in assay [3] is recorded as “minimal or no effect”.
`CCCC(CCC)C(=O)O` [VPA, valproic acid]: the “effect on chondrogenic differentiation” value in assay [1] was “does not affect”. In assay [2], the “effect on neural / neurological development” value is “decreases”. In addition, the “effect on bone development / osteogenic differentiation” value in assay [3] is on record as “does not affect”.
